Test results reported in paper PMC7689250, “Synthetic Peptide Libraries Designed From a Minimal Alpha-Helical Domain of AS-48-Bacteriocin Homologs Exhibit Potent Antibacterial Activity” (Frontiers in Microbiology, 2020).
Where two headings read alike, the source gives them in different places. Residues, ends and D or L forms follow the SMILES beside them.

How the values were obtained:
P. aeruginosa (PAO1) = format: cell-based, Pseudomonas aeruginosa; settings: for MBC: PAO1; for MIC: PAO1, 16 h
Procedure, shortened: (§1)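 MIC in Mueller-Hinton broth with 1 × 10^6 CFU/mL bacteria, overnight cultures grown first in LB (E. coli, P. aeruginosa, S. aureus) or Todd-Hewitt (S. pyogenes); growth read as OD 600. Library members screened at half the parent peptide MIC; MBC as lowest concentration giving no colonies after plating MIC wells, 37°C overnight.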

S. pyogenes (M1) = format: cell-based, Streptococcus pyogenes; settings: for MBC: M1
Procedure, shortened: as §1

E. coli (BL21) = format: cell-based, Escherichia coli
Procedure, shortened: as §1

sheep erythrocytes = format: cell-based; settings: red cells of sheep, 1 h
Procedure, shortened: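 Washed defibrinated sheep blood, diluted 1:25 in PBS, incubated 1 h at 37 °C with peptide at the MIC-assay concentrations (sample:blood 1:10). Haemoglobin release read as supernatant absorbance at 450 nm; percent haemolysis normalised to PBS and 10% Triton controls.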

[1] = test system: GFP-expressing E. coli strain BL21; test: Live imaging of GFP leakage; format: cell-based, Escherichia coli; settings: 16 μM peptide, 8 h, 37°C, images every 10 min
Protocol: To observe bacterial cell death in the presence of peptide in real time, fluorescence microscopy was employed using GFP-expressing E. coli strain BL21. MIC assays were conducted against BL21-GFP to determine the peptide concentration used for microscopy experiments. The peptide was suspended in PBS and added to diluted bacterial cells. GFP-expressing E. coli in the presence of peptide were imaged on the Eclipse Ti-E inverted microscope (Nikon) using GFP and DIC channels for 8 h at 37°C, with images taken every 10 min ([Fields et al., 2020]). Syn-xiamencin-2, a peptide with no detectable antimicrobial activity below 128 μM was also evaluated as a negative peptide candidate control.

E. coli strain BL21 = test: Propidium iodide uptake by FACS; format: cell-based, Escherichia coli; settings: 2, 4, 8, 16 or 32 μM peptide in saline, 1 h, ambient temperature, 1 × 10^4 events
Protocol: For determination of bacterial cell death via membrane disruption, bacterial cells were subjected to propidium iodide (PI) uptake and quantified using fluorescence-activated cell sorting (FACS). E. coli strain BL21 were first diluted to a OD 600 of 1.0. Cells were washed three times in 0.85% NaCl (saline) solution and resuspended in either 1.5 mL of either saline, 70% isopropyl alcohol, or peptide diluted to either 2, 4, 8, 16 or 32 μM in saline for 1 h at ambient temperature. Following incubation, cells were pelleted and resuspended in 1 mL of saline with 1.5 μL/mL propidium iodide and incubated in the dark for 15 min. The samples were washed again with saline three times and run through a Beckman Coulter FC500 flow cytometer. The FL3 detector, using the propidium iodine PE-Alexa Fluor 610 emission filter, was used to sort the cells. 1 × 10^4 events were collected for each sample run.

S. aureus (USA300) = format: cell-based, Staphylococcus aureus; settings: for MBC: USA300; for MIC: USA300, 16 h
Procedure, shortened: as §1

[2] = test system: human keratinocyte cell line (HaCaT); test: HaCaT cytotoxicity, ethidium homodimer assay; format: cell-based; settings: 16 h, 37°C, DMEM + 10% FBS, normalised to saponin, triplicate
Protocol: To assess cytotoxicity of optimized peptides in mammalian cells, an immortalized human keratinocyte cell line (HaCaT) was used. Cells were grown to 80% confluency in 24-well culture dishes and washed with PBS (Thermo Fisher). […] After incubation, the cells were washed with sterile PBS, followed by a covered incubation with 4 μM ethidium homodimer (Molecular Probes) for 30 min at room temperature. Fluorescence was measured using the Synergy H1 Microplate Reader set to 528 nm excitation, 617 nm emission, and a cutoff value of 590 nm. Saponin (0.1% wt/vol, Sigma) was added to each well followed by a covered incubation for 20 min at room temperature, followed by another measurement on the Synergy H1 Microplate Reader using the same settings to normalize readings to the number of cells per well and determine the percent cytotoxicity.

[3] = E. coli BL21, running text b43, unit printed nm

SMILES | MBC (P. aeruginosa (PAO1)) | MIC (P. aeruginosa (PAO1)) | MBC (S. pyogenes (M1)) | MIC (S. pyogenes (M1); M1, 16 h) | MBC (E. coli (BL21); BL21) | MIC (E. coli (BL21); BL21, 16 h) | Percent Hemolysis (sheep erythrocytes) | GFP leakage / change in fluorescence [1] | PI positive cells (E. coli strain BL21) | MBC (S. aureus (USA300)) | MIC (S. aureus (USA300)) | MIC (E. coli (BL21); E. coli BL21) | concentration at which peptide is cytotoxic [2] | MIC (S. pyogenes (M1); S. pyogenes M1) | MIC (S. pyogenes (M1); S. pyogenes M1, running text b43, unit printed nm) | MIC (E. coli (BL21); BL21) | MBC (E. coli (BL21); [3]) | MIC (E. coli (BL21); [3])
CC[C@H](C)[C@H](NC(=O)[C@H](CCCCN)NC(=O)[C@H](CCCCN)NC(=O)[C@H](CCCCN)NC(=O)[C@H](CC(C)C)NC(=O)[C@H](CCCNC(=N)N)NC(=O)[C@H](CCC(N)=O)NC(=O)[C@H](Cc1ccccc1)NC(=O)[C@@H](NC(=O)[C@@H](NC(=O)[C@H](CCC(=O)O)NC(=O)[C@H](CCCCN)NC(=O)CNC(=O)[C@H](C)N)[C@@H](C)O)[C@@H](C)CC)C(=O)N[C@@H](CCC(N)=O)C(=O)N[C@@H](CCC(=O)O)C(=O)N[C@@H](CCCCN)C(=O)N[C@@H](Cc1c[nH]c2ccccc12)C(=O)N[C@@H](CCCCN)C(=O)N[C@@H](CCCNC(=N)N)C(=O)N[C@@H](C)C(=O)N[C@H](C(=O)N[C@H](C(=O)N[C@@H](C)C(=O)N[C@@H](Cc1c[nH]c2ccccc12)C(=O)O)[C@@H](C)CC)[C@@H](C)O [Syn-larvacin-43] (H-AGKETIFQRLKKKIQEKWKRATIAW-OH; N-terminus and C-terminus assumed) | 16 µM | 16 µM | 4 µM | 4 µM | 1 µM | 1 µM | 19.9% | significant decrease in fluorescence | higher cell counts of PI-stained cells in a dose-dependent manner | 4 µM | 4 µM | – | – | – | – | – | – | –
CC[C@H](C)[C@H](NC(=O)[C@H](CCCNC(=N)N)NC(=O)CNC(=O)[C@@H](NC(=O)[C@H](CCCCN)NC(=O)[C@H](CCCNC(=N)N)NC(=O)[C@@H](NC(=O)[C@H](Cc1ccc(O)cc1)NC(=O)[C@H](CCCNC(=N)N)NC(=O)[C@H](CCCNC(=N)N)NC(=O)[C@H](CC(C)C)NC(=O)[C@H](CCC(=O)O)NC(=O)[C@H](CCCCN)NC(=O)[C@H](C)NC(=O)[C@@H](NC(=O)[C@H](CCCNC(=N)N)NC(=O)[C@H](CC(N)=O)NC(=O)[C@@H](NC(=O)CNC(=O)[C@H](C)N)[C@@H](C)O)[C@@H](C)CC)[C@@H](C)CC)C(C)C)C(=O)N[C@@H](C)C(=O)N[C@@H](CCCNC(=N)N)C(=O)N[C@@H](CCCCN)C(=O)N[C@@H](Cc1c[nH]c2ccccc12)C(=O)N[C@@H](Cc1c[nH]c2ccccc12)C(=O)O [Syn-sordellicin-64] (H-AGTNRIAKELRRYIRKVGRIARKWW-OH; N-terminus and C-terminus assumed) | 8 µM | 8 µM | 1 µM | 1 µM | 0.5 µM | – | 18.8% | – | – | 8 µM | 8 µM | 0.25 µM | ≥ 32 µM | – | – | – | – | –
CC(C)O [Isopropyl alcohol, isopropyl alcohol, reference compound] | – | – | – | – | – | – | – | – | large peak within the PI florescence range | – | – | – | – | – | – | – | – | –
CC[C@H](C)[C@H](NC(=O)[C@H](Cc1c[nH]c2ccccc12)NC(=O)[C@H](C)NC(=O)[C@H](CCCNC(=N)N)NC(=O)[C@H](CCCCN)NC(=O)CNC(=O)[C@H](CCCCN)NC(=O)[C@H](CCC(=O)O)NC(=O)[C@H](CCC(N)=O)NC(=O)[C@@H](NC(=O)[C@H](CCCCN)NC(=O)[C@H](CCCCN)NC(=O)[C@H](CCCCN)NC(=O)[C@H](CC(C)C)NC(=O)[C@H](CCCNC(=N)N)NC(=O)[C@H](CCC(N)=O)NC(=O)[C@H](Cc1ccccc1)NC(=O)[C@@H](NC(=O)[C@@H](NC(=O)[C@H](CCC(=O)O)NC(=O)[C@H](CCCCN)NC(=O)CNC(=O)[C@H](C)N)[C@@H](C)O)[C@@H](C)CC)[C@@H](C)CC)C(=O)N[C@@H](C)C(=O)N[C@@H](Cc1c[nH]c2ccccc12)C(=O)O [Syn-larvacin-27] (H-AGKETIFQRLKKKIQEKGKRAWIAW-OH; N-terminus and C-terminus assumed) | 64 µM | 32 µM | 0.5 µM | – | – | <0.0156 µM | – | significant decrease in fluorescence | higher cell counts of PI-stained cells in a dose-dependent manner | 8 µM | 8 µM | – | – | 0.125 µM | 0.125 µM | 0.0156 µM | below 15.6 nM | below 15.6 nM
